Data reported in US6875760B2 (Novo Nordisk A/S, priority 1999, dated 2005).

What follows are compounds tested against T1, human glucagon receptor (Homo sapiens, UniProt P47871) (assay: Glucagon Binding Assay (III)). Details: BHK cell membranes, WGA SPA beads, 125I-glucagon; read-out: Glu Bd Assay (III) IC50.
T1 construct: expressed in transfected cells; host or cells: BHK (baby hamster kidney) cells
In short: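 Non-specific binding was set with 500 nM glucagon in this SPA-type binding assay using WGA beads. The receptor source was a membrane preparation, kept on ice or at 4 °C, from BHK cells transfected with the human receptor. Scintillation counts were taken after 4 hours of shaking and 8–48 hours of settling.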

T1 sequence (P47871 26-477): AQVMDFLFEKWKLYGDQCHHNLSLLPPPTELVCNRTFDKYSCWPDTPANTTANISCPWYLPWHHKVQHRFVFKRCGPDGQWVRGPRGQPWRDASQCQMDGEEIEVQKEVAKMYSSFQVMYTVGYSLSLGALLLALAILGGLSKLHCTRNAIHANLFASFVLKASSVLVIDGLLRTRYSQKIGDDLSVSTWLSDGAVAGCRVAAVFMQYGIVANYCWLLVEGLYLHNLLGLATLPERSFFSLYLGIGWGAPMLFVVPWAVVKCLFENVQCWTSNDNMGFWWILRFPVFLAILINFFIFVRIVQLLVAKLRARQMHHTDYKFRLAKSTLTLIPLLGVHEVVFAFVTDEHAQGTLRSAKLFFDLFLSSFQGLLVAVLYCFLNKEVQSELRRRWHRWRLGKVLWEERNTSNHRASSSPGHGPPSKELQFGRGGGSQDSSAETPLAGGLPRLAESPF

Row | SMILES | IC50
1 | O=C(O)CCNC(=O)c1ccc(CN(C(=O)Nc2ccc(OC(F)(F)F)cc2)C2CCC(C3CC3)CC2)cc1 (stereo not shown) [Example 249, 3-{4-[1-(4-Cyclopropylcyclohexyl)-3-(4-trifluoromethoxyphenyl)ureidomethyl]benzoylamino}propionic acid] | 320 nM
2 | CC(C)(C)c1ccc(N(Cc2ccc(C(=O)Nc3nn[nH]n3)cc2)C(=O)Nc2cccc(S(=O)(=O)N3CCCCC3)c2)cc1 [Example 277] | 411 nM
3 | CC(C)(C)C1CCC(N(Cc2ccc(C(=O)NCCC(=O)O)cc2)C(=O)Nc2ccccc2C(F)(F)F)CC1 (stereo not shown) [Example 25, 3-{4-[1-(4-tert-Butylcyclohexyl)-3-(2-trifluoromethylphenyl)ureidomethyl]benzoylamino}propionic acid] | 935 nM
4 | O=C(Nc1nn[nH]n1)c1ccc(CN(C(=O)Cc2ccc(F)cc2F)c2ccc(C3CCCCC3)cc2)cc1 [Example 496, 4-({(4-Cyclohexylphenyl)-[2-(2,4-difluorophenyl)acetyl]amino}methyl)-N-(2H-tetrazol-5-yl)benzamide] | 566 nM
5 | COc1ccc(NC(=O)N(Cc2ccc(C(=O)NCCC(=O)O)cc2)C2CCC(C(C)(C)C)CC2)cc1 (stereo not shown) [Example 59, 3-{4-[1-(4-tert-Butylcyclohexyl)-3-(4-methoxyphenyl)ureidomethyl]benzoylamino}propionic acid] | 3800 nM
6 | CC(Oc1cccc(Cl)c1)C(=O)N(Cc1ccc(C(=O)Nc2nn[nH]n2)cc1)c1ccc(C2CCCCC2)cc1 (stereo not shown) [Example 498, 4-{[[2-(3-Chlorophenoxy)propionyl]-(4-cyclohexylphenyl)amino]methyl}-N-(2H-tetrazol-5-yl)benzamide] | 621 nM
7 | CSc1cccc(NC(=O)N(Cc2ccc(C(=O)NCCC(=O)O)cc2)C2CCC(C(C)(C)C)CC2)c1 (stereo not shown) [Example 26, 3-{4-[1-(4-tert-Butylcyclohexyl)-3-(3-methylsulfanylphenyl)ureidomethyl]benzoylamino}propionic acid] | 385 nM
8 | CC(C)c1ccc(NC(=O)N(Cc2ccc(C(=O)NCCC(=O)O)cc2)CC(c2ccccc2)c2ccccc2)cc1 [Example 55, 3-{4-[1-(2,2-Diphenylethyl)-3-(4-isopropylphenyl)ureidomethyl]benzoylamino}propionic acid] | 1000 nM
9 | O=C(O)CCNC(=O)c1ccc(CN(CC(c2ccccc2)c2ccccc2)C(=O)Cc2cccc(OC(F)(F)F)c2)cc1 [Example 556] | 660 nM
10 | CS(=O)(=O)c1ccc(OC(=O)N(Cc2ccc(C(=O)NCCC(=O)O)cc2)c2ccc(C3CCCCC3)cc2)cc1 [Example 621, 3-(4-{[(4-Cyclohexylphenyl)-(4-(methylsulfonyl)phenoxycarbonyl)amino]methyl}benzoylamino)propionic acid] | 4600 nM
11 | CC(C)(C)C1CCC(N(Cc2ccc(C(=O)NCCC(=O)O)cc2)NC(=O)c2cc(C(F)(F)F)cc(C(F)(F)F)c2)CC1 (stereo not shown) [Example 428, 3-{4-[N′-(3,5-Bis(trifluoromethyl)benzoyl)-N-(4-tert-butylcyclohexyl)hydrazinomethyl]benzoylamino}propionic acid] | 410 nM
12 | CCC(C)c1ccc(N(Cc2ccc(C(=O)Nc3nn[nH]n3)cc2)C(=O)Nc2cccc(S(C)(=O)=O)c2)cc1 (stereo not shown) [Example 446, 4-[1-(4-sec-Butylphenyl)-3-(3-methylsulfonylphenyl)ureidomethyl]-N-(2H-tetrazol-5-yl)benzamide] | 522 nM
13 | O=C(O)CCNC(=O)c1ccc(CN(C(=O)Oc2cccc(OC(F)(F)F)c2)c2ccc(C3CCCCC3)cc2)cc1 [Example 421, 3-(4-{[(4-Cyclohexylphenyl)-(3-trifluoromethoxyphenoxycarbonyl)amino]methyl}benzoylamino)propionic acid] | 528 nM
14 | CC(C)(C)C1CCC(N(Cc2ccc(C(=O)Nc3nn[nH]n3)cc2)C(=O)CCC(=O)c2ccccc2)CC1 (stereo not shown) [Example 541, 4-({(4-tert-Butylcyclohexyl)-(4-oxo-4-phenylbutyryl)amino]methyl}-N-(2H-tetrazol-5-yl)benzamide] | 805 nM
15 | O=C(O)CCNC(=O)c1ccc(CN(C(=O)Oc2cc(Cl)cc(Cl)c2)c2ccc(C3CCCCC3)cc2)cc1 [Example 400, 3-(4-{[(4-Cyclohexylphenyl)-(3,5-dichlorophenoxycarbonyl)amino]methyl}benzoylamino)propionic acid] | 533 nM
16 | CC(C)c1ccc(NC(=O)N(Cc2ccc(C(=O)NCCC(=O)O)cc2)C2CCC(C(C)(C)C)CC2)cc1 (stereo not shown) [Example 29, 3-{4-[1-(4-tert-Butylcyclohexyl)-3-(4-isopropylphenyl)ureidomethyl]benzoyl}aminopropionic acid] | 149 nM
17 | O=C(Nc1nn[nH]n1)c1ccc(CN(C(=O)/C=C/c2cccc3ccccc23)c2ccc(C3CCCCC3)cc2)cc1 [Example 534, 4-{[(4-Cyclohexylphenyl)-(3-naphthalen-1-ylacryloyl)amino]methyl}-N-(2H-tetrazol-5-yl)benzamide] | 282 nM
18 | CC(C)(C)[C@H]1CC[C@H](N(Cc2ccc(C(=O)NCCC(=O)O)cc2)C(=O)Nc2cc(C(F)(F)F)cc(C(F)(F)F)c2)CC1 [Example 100, 3-{4-[3-(3,5-Bis-trifluoromethylphenyl)-1-(trans-4-tert-butylcyclohexyl)ureidomethyl]benzoylamino}propionic acid] | 50 nM
19 | CC(C)(C)C1CCC(N(Cc2ccc(C(=O)Nc3nn[nH]n3)cc2)C(=O)/C=C/c2cccs2)CC1 (stereo not shown) [Example 476, 4-{[(4-tert-Butylcyclohexyl)-(3-thiophen-2-ylacryloyl)amino]methyl}-N-(2H-tetrazol-5-yl)benzamide] | 955 nM
20 | CC(C)(C)c1ccc(N(Cc2ccc(C(=O)Nc3nn[nH]n3)cc2)C(=O)Nc2cccc(C(N)=O)c2)cc1 [Example 459, 3-{3-(4-tert-Butylphenyl)-3-[4-(2H-tetrazol-5-ylcarbamoyl)benzyl]ureido}benzamide] | 2110 nM

The remaining lines, values ahead:

Row | IC50 | SMILES
21 | 21 nM | O=C(O)CCNC(=O)c1ccc(CN(C(=O)NCc2ccccc2-c2ccccc2)[C@H]2CC[C@H](C3CCCCC3)CC2)cc1 [Example 391]
22 | 88 nM | CC(C)(C)C1CCC(N(Cc2ccc(C(=O)Nc3nn[nH]n3)cc2)C(=O)Cc2ccc(-c3ccccc3)cc2)CC1 (stereo not shown) [Example 547, 4-{[(2-Biphenyl-4-ylacetyl)-(4-tert-butylcyclohexyl)amino]methyl}-N-(2H-tetrazol-5-yl)benzamide]
23 | 229 nM | O=C(O)CCNC(=O)c1ccc(CN(C(=O)Nc2ccc(OC(F)(F)F)cc2)[C@H]2CC[C@@H](c3ccccc3)CC2)cc1 [Example 80, 3-{4-[1-(4-cis-Phenylcyclohexyl)-3-(4-trifluoromethoxyphenyl)ureidomethyl]benzoylamino}propionic acid]
24 | 280 nM | CC(C)(C)C1CCC(N(Cc2ccc(C(=O)Nc3nn[nH]n3)cc2)C(=O)CSCc2ccccc2)CC1 (stereo not shown) [Example 537, 4-{[(2-Benzylsulfanylacetyl)-(4-tert-butylcyclohexyl)amino]methyl}-N-(2H-tetrazol-5-yl)benzamide]
25 | 102 nM | O=C(Nc1nn[nH]n1)c1ccc(CN(C(=O)NCCc2ccccc2)c2ccc(C3CCCCC3)cc2)cc1 [Example 323, 4-[1-(4-Cyclohexylphenyl)-3-phenethylureidomethyl]-N-(2H-tetrazol-5-yl)benzamide]
26 | 66 nM | COc1cccc2cc(C(C)NC(=O)N(Cc3ccc(C(=O)Nc4nn[nH]n4)cc3)c3ccc(C4CCCCC4)cc3)ccc12 (stereo not shown) [Example 379, 4-{1-(4-Cyclohexylphenyl)-3-[1-(5-methoxynaphthalen-2-yl)ethyl]ureidomethyl}-N-(2H-tetrazol-5-yl)benzamide]
27 | 14 nM | O=C(Nc1nn[nH]n1)c1ccc(CN(C(=O)Nc2ccc(F)c(C(F)(F)F)c2)c2ccc(C3=CCCCC3)cc2)cc1 [Example 328, 4-[1-(4-Cyclohex-1-enylphenyl)-3-(4-fluoro-3-trifluoromethylphenyl)ureidomethyl]-N-(2H-tetrazol-5-yl)benzamide]
28 | 17 nM | O=C(Nc1nn[nH]n1)c1ccc(CN(C(=O)Nc2ccc(Br)c(C(F)(F)F)c2)c2ccc(C3=CCCCC3)cc2)cc1 [Example 601, 4-[3-(4-Bromo-3-trifluoromethylphenyl)-1-(4-cyclohex-1-enylphenyl)ureidomethyl]-N-(2H-tetrazol-5-yl)benzamide]
29 | 106 nM | CCCCc1ccc(N(Cc2ccc(C(=O)Nc3nn[nH]n3)cc2)C(=O)Nc2ccc(OC(F)(F)F)cc2)cc1 [Example 292, 4-[1-(4-Butylphenyl)-3-(4-trifluoromethoxyphenyl)ureidomethyl]-N-(2H-tetrazol-5-yl)benzamide]
30 | 140 nM | O=C(Nc1nn[nH]n1)c1ccc(CN(C(=O)/C=C/c2ccccc2Cl)c2ccc(C3CCCCC3)cc2)cc1 [Example 500, 4-{[[3-(2-Chlorophenyl)acryloyl]-(4-cyclohexylphenyl)amino]methyl}-N-(2H-tetrazol-5-yl)benzamide]
31 | 96 nM | CC(C)(C)c1ccc(N(Cc2ccc(C(=O)NCCC(=O)O)cc2)C(=O)Nc2ccc(OC(F)(F)F)cc2)cc1 [Example 373, 3-{4-[1-(4-tert-Butylphenyl)-3-(4-trifluoromethoxyphenyl)ureidomethyl]benzoylamino}propionic acid]
32 | 23 nM | CC(C)c1noc(-c2cccc(NC(=O)N(Cc3ccc(C(=O)Nc4nn[nH]n4)cc3)c3ccc(C4CCCCC4)cc3)c2)n1 [Example 468, 4-{1-(4-Cyclohexylphenyl)-3-[3-(3-isopropyl-[1,2,4]oxadiazol-5-yl)phenyl]ureidomethyl}-N-(2H-tetrazol-5-yl)benzamide]
33 | 224 nM | O=C(Nc1nn[nH]n1)c1ccc(CN(C(=O)CCCc2ccccc2)c2ccc(C3CCCCC3)cc2)cc1 [Example 535, 4-{[(4-Cyclohexylphenyl)-(4-phenylbutyryl)amino]methyl}-N-(2H-tetrazol-5-yl)benzamide]

Same assay, conditions: Glu Bd Assay (III) IC50 (nM), BHK cell membranes, WGA SPA beads, 125I-glucagon

Row | SMILES | IC50
34 | CC(C)(C)[C@H]1CC[C@H](N(Cc2ccc(C(=O)N3CCCC(C(=O)O)C3)cc2)C(=O)Nc2ccc(OC(F)(F)F)cc2)CC1 (relative stereo) [Example 94, 1-{4-[1-(trans-4-tert-Butylcyclohexyl)-3-(4-trifluoromethoxyphenyl)ureidomethyl]benzoyl}piperidine-3-carboxylic acid] | 1000 nM
